Laboratory results reported in PubChem BioAssay (NCI).
Several values for one entry are separate records, joined by “and”; a condition that tells them apart may be missing. Equal entries are not always repeated.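 Assay format: 96-well plates, 48-hour exposure. GI50 marks 50% less growth. Definition used: TGI = concentration required for complete inhibition of growth.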

Legend:
Assay in all cases: growth of human tumour cells (NCI), 48 h
CCRF-CEM leukemia = test system: CCRF-CEM leukemia
COLO 205 colon = test system: COLO 205 colon
HCT-116 colon = test system: HCT-116 colon
K-562 leukemia = test system: K-562 leukemia
LOX IMVI melanoma = test system: LOX IMVI melanoma
OVCAR-3 ovarian = test system: OVCAR-3 ovarian
RPMI-8226 leukemia = test system: RPMI-8226 leukemia
SN12C renal = test system: SN12C renal
UO-31 renal = test system: UO-31 renal

| SMILES | TGI (CCRF-CEM leukemia) | TGI (COLO 205 colon) | TGI (HCT-116 colon) | TGI (K-562 leukemia) | TGI (LOX IMVI melanoma) | TGI (OVCAR-3 ovarian) [µM] | TGI (RPMI-8226 leukemia) [µM] | TGI (SN12C renal) [µM] | TGI (UO-31 renal) [µM] | GI50 (CCRF-CEM leukemia) [µM] | GI50 (COLO 205 colon) [µM] | GI50 (HCT-116 colon) [µM] | GI50 (K-562 leukemia) [µM] | GI50 (LOX IMVI melanoma) [µM] | GI50 (OVCAR-3 ovarian) [µM] | GI50 (SN12C renal) [µM] | GI50 (UO-31 renal) [µM] |
| --- | --- | --- | --- | --- | --- | --- | --- | --- | --- | --- | --- | --- | --- | --- | --- | --- | --- |
| CC(=O)CCC1(c2ccccc2)OC(=O)C(C#N)=C1c1ccccc1 (centres undefined) | > 100 µM | > 100 µM | > 100 µM | > 100 µM | > 100 µM | > 100 | > 100 | > 100 | > 100 | – | – | – | – | – | – | – | – |
| COC(=O)CC1(O)C(=O)OCc2c1cc1n(c2=O)Cc2c-1nc1ccccc1c2OC (centres undefined) | 0.594 µM | > 100 µM | > 100 µM | > 100 µM | > 81.6 µM | > 57.4 | 23.2 | 1.84 | 30.5 | – | – | – | – | – | – | – | – |
| CC1NOC(=O)C1N=Nc1cccc(Cl)c1 (centres undefined) | 57.7 µM | 55.7 µM | > 100 µM | > 100 µM | > 100 µM | 60.4 | – | > 100 | > 100 | – | – | – | – | – | – | – | – |
| Nc1nc(Cl)c2ncn(CCCC(c3ccccc3)P(=O)(O)O)c2n1 (centres undefined) | > 100 µM | > 100 µM | > 100 µM | > 100 µM | > 100 µM | > 100 | > 100 | > 100 | > 100 | – | – | – | – | – | – | – | – |
| O=P(CN1CCOCC1)(c1ccccc1)c1ccccc1 | > 100 µM | > 100 µM | > 100 µM | > 100 µM | > 100 µM | > 100 | > 100 | > 100 | > 100 | – | – | – | – | – | – | – | – |
| Cc1c(Cl)ccc2c1NC(=O)C2(O)CC(=O)c1ccc(Cl)cc1 (centres undefined) | 53.5 µM | > 64.9 µM | > 54 µM | > 64.8 µM | > 46.3 µM | > 100 | > 84.3 | > 54.9 | > 100 | – | – | – | – | – | – | – | – |
| CC1[C@@]2(CCC(C)(C)O2)O[C@@H]2C=C3C4CCC5Cc6nc7c(nc6C[C@@]5(C)C4C[C@H](O)[C@@]3(C)[C@]12O)CC1CCC2C3=C[C@H]4O[C@@]5(O[C@@](C)(CO)C[C@@H]5O)C(C)[C@@]4(O)[C@]3(C)[C@@H](O)CC2[C@]1(C)C7 (some centres undefined) | 0.106 µM and 0.018 µM | 0.472 µM and 0.0525 µM | 0.719 µM and 0.493 µM | 0.44 µM and 0.445 µM | 0.695 µM and 0.366 µM | 1.11 | 0.032 | 1.19 | 0.114 | 0.0017 | 0.0141 | 0.0273 | 0.0103 | 0.0106 | 0.435 | 0.421 | – |
| O=C(N/C(=C\c1ccc([N+](=O)[O-])cc1)c1nc2ccccc2s1)c1ccccc1 | 66.3 µM | > 100 µM | > 100 µM | 59.2 µM | 46.5 µM | > 100 | 44.1 | 44.9 | 56.3 | – | – | – | – | – | – | – | – |
| COc1ccc(/C=C/C(=O)c2c(-c3ccccc3)nn(C)c(=O)c2N2CC2C)cc1 (centres undefined) | 73.9 µM | 89.2 µM | > 100 µM | > 100 µM | 34 µM | 67.7 | – | > 100 | > 100 | – | – | – | – | – | – | – | – |
| N#C/C(=C\c1ccc(O)cc1)C(N)=O | > 100 µM | > 100 µM | > 100 µM | > 100 µM | > 100 µM | > 100 | > 100 | > 100 | > 100 | – | – | – | – | – | – | – | – |
| COC(=O)C1=NC(=S)NC(c2ccccc2)C1c1nc2ccccc2o1 (centres undefined) | > 50 µM | > 50 µM | > 50 µM | > 50 µM | > 50 µM | > 50 | > 50 | > 50 | > 50 | – | – | – | – | – | – | – | – |
| Cc1cc(Cl)ccc1N=C1NC(=O)C(CC(=O)Nc2cccc(Cl)c2)S1 (centres undefined) | > 100 µM | > 100 µM | > 100 µM | > 100 µM | > 100 µM | > 100 | – | > 100 | > 100 | – | – | – | – | – | – | – | – |
| CCN(CC)CCOC(COc1cc(C)cc(C)c1)COc1cc(C)cc(C)c1 | 8.24 µM | 3.52 µM | 14.9 µM | – | 2.73 µM | 13 | – | 15.6 | 13 | 2.25 | 1.65 | 3.31 | – | 1.31 | 3.46 | 2.62 | 2.19 |
| C=CCNC(=S)NNC(=O)c1c(C)nc2sccn12 | > 100 µM | > 100 µM | > 100 µM | > 100 µM | > 100 µM | > 100 | – | > 100 | – | – | – | – | – | – | – | – | – |
| COc1ccc(/C=C/C(=N\NC(=O)c2ccccc2)c2sc(Nc3ccc([N+](=O)[O-])cc3)nc2C)cc1OC | > 100 µM | > 100 µM | > 100 µM | > 100 µM | 15.9 µM | 61.5 | – | > 100 | 56.6 | – | – | – | – | – | – | – | – |
| CC(C)c1ccc(O)c(Cc2cc(C(C)C)cc(Cc3cc(C(C)C)ccc3O)c2O)c1 | 6.91 µM | 12.3 µM | 3.19 µM | 4.78 µM | – | 3.03 | 4.75 | 3.16 | 3.04 | – | – | – | – | – | – | – | – |
| FC(F)(F)c1ccccc1C1SCc2nc3ccccc3n21 (centres undefined) | > 100 µM | > 100 µM | > 100 µM | > 100 µM | – | > 100 | > 100 | > 100 | > 100 | – | – | – | – | – | – | – | – |
| CCOc1ccc(NC(=O)CC2SC(=Nc3ccc(C)cc3)NC2=O)cc1 (centres undefined) | > 100 µM | > 100 µM | > 100 µM | – | > 100 µM | > 100 | – | > 100 | > 100 | – | – | – | – | – | – | – | – |
